Patent US20250122219A1 (priority 2023, published 2025)

Assay: Cytotoxicity assay in MT-4 cells
Assay type: cell-based
Settings: human; uninfected MT-4 cells, 5 days incubation, Cell Titer Glo; read-out: MT4 CC50
Experimental: Compounds were tested in a high-throughput 384-well assay format for their ability to inhibit the replication of HIV-1 (IIIB) in MT-4 cells. Compounds were serially diluted (1.3) in DMSO on 384-well polypropylene plates and further diluted 200-fold into complete RPMI media (10% FBS, 1% P/S) using the Biotek Micro Flow and Labcyte ECHO acoustic dispenser. Each plate contained up to 8 test compounds, with negative (No Drug Control) and 5 μM AZT positive controls. MT-4 cells were pre-infected with 10 μL of either RPMI (mock-infected) or a fresh 1:250 dilution of HIV-1 IIIB concentrated virus stock. Infected and uninfected MT-4 cells were further diluted in complete RPMI media and added to each plate using a Micro Flow dispenser. After 5 days incubation in a humidified and temperature controlled incubator (37° C.), Cell Titer Glo (Promega) was added to the assay plates and chemiluminescence read using an Envision plate-reader.
Assays were performed as above except uninfected MT-4 cells were added to each well containing test compound. In addition, […] puromycin was added to the last column of each assay plate to assess a base level of cytotoxicity.

Molecule `CO[C@H](C)COC(=O)OCOc1c2n(cc(C(=O)NCc3ccc(F)cc3F)c1=O)[C@@H]1CN(C2=O)[C@@H](C)CC[C@]12CC(C)=NO2` [Example 217, (((3′S,5S,7′R)-10′-((2,4-difluorobenzyl)carbamoyl)-3,3′-dimethyl-1′,11′-dioxo-1′,4′,5′,11′-tetrahydro-3′H,4H,7′H-spiro[isoxazole-5,6′-[2,7]methanopyrido[1,2-a][1,4]diazonin]-12′-yl)oxy)methyl ((R)-2-methoxypropyl) carbonate] has a CC50 at 5 days of 24.6 µM.

Molecule `COC[C@H](C)OC(=O)OCOc1c2n(cc(C(=O)NCc3ccc(F)cc3F)c1=O)[C@@H]1CN(C2=O)[C@@H](C)CC[C@]12CC(OC)=NO2` [Example 216, (((3′S,5S,7′R)-10′-((2,4-difluorobenzyl)carbamoyl)-3-methoxy-3′-methyl-1′,11′-dioxo-1′,4′,5′,11′-tetrahydro-3′H,4H,7′H-spiro[isoxazole-5,6′-[2,7]methanopyrido[1,2-a][1,4]diazonin]-12′-yl)oxy)methyl ((S)-1-methoxypropan-2-yl) carbonate] has a CC50 at 5 days of at least 50 µM.

Work on `CC1=NO[C@@]2(CC[C@H](C)N3C[C@H]2n2cc(C(=O)NCc4ccc(F)cc4F)c(=O)c(OC(=O)OCCCCCCC(C)C)c2C3=O)C1` [Example 158, (3′S,5S,7′R)-10′-((2,4-difluorobenzyl)carbamoyl)-3,3′-dimethyl-1′,11′-dioxo-1′,4′,5′,11′-tetrahydro-3′H,4H,7′H-spiro[isoxazole-5,6′-[2,7]methanopyrido[1,2-a][1,4]diazonin]-12′-yl (7-methyloctyl) carbonate] yielded a CC50 at 5 days of 16.8 µM.

Molecule `CCCCCCCCCCCCCCOC(=O)OCOc1c2n(cc(C(=O)NCc3ccc(F)cc3F)c1=O)[C@@H]1CN(C2=O)[C@@H](C)CC[C@]12CC(OC)=NO2` [Example 193, (((3′S,5S,7′R)-10′-((2,4-difluorobenzyl)carbamoyl)-3-methoxy-3′-methyl-1′,11′-dioxo-1′,4′,5′,11′-tetrahydro-3′H,4H,7′H-spiro[isoxazole-5,6′-[2,7]methanopyrido[1,2-a][1,4]diazonin]-12′-yl)oxy)methyl tetradecyl carbonate] has a CC50 at 5 days of at least 50 µM.

With `COC1=NO[C@@]2(CC[C@H](C)N3C[C@H]2n2cc(C(=O)NCc4ccc(F)cc4F)c(=O)c(OC(=O)CCCCCC(=O)O)c2C3=O)C1` [Example 74, 7-(((3′S,5S,7′R)-10′-((2,4-difluorobenzyl)carbamoyl)-3-methoxy-3′-methyl-1′,11′-dioxo-1′,4′,5′,11′-tetrahydro-3′H,4H,7′H-spiro[isoxazole-5,6′-[2,7]methanopyrido[1,2-a][1,4]diazonin]-12′-yl)oxy)-7-oxoheptanoic acid] the CC50 at 5 days was 26.3 µM.

`COC1=NO[C@@]2(CC[C@H](C)N3C[C@H]2n2cc(C(=O)NCc4ccc(F)cc4F)c(=O)c(OCOC(=O)OC[C@H](C)OC)c2C3=O)C1` [Example 220, (((3′S,5S,7′R)-10′-((2,4-difluorobenzyl)carbamoyl)-3-methoxy-3′-methyl-1′,11′-dioxo-1′,4′,5′,11′-tetrahydro-3′H,4H,7′H-spiro[isoxazole-5,6′-[2,7]methanopyrido[1,2-a][1,4]diazonin]-12′-yl)oxy)methyl ((S)-2-methoxypropyl) carbonate] gave a CC50 at 5 days of 41.6 µM.

Molecule `COC1=NO[C@@]2(CC[C@H](C)N3C[C@H]2n2cc(C(=O)NCc4ccc(F)cc4F)c(=O)c(OC(=O)OCCCCCCC(C)C)c2C3=O)C1` [Example 159, (3′S,5S,7′R)-10′-((2,4-difluorobenzyl)carbamoyl)-3-methoxy-3′-methyl-1′,11′-dioxo-1′,4′,5′,11′-tetrahydro-3′H,4H,7′H-spiro[isoxazole-5,6′-[2,7]methanopyrido[1,2-a][1,4]diazonin]-12′-yl (7-methyloctyl) carbonate] has a CC50 at 5 days of 35.9 µM.

`CCCOC(=O)Oc1c2n(cc(C(=O)NCc3ccc(F)cc3F)c1=O)[C@@H]1CN(C2=O)[C@@H](C)CC[C@]12CC(OC)=NO2` [Example 126, (3′S,5S,7′R)-10′-((2,4-difluorobenzyl)carbamoyl)-3-methoxy-3′-methyl-1′,11′-dioxo-1′,4′,5′,11′-tetrahydro-3′H,4H,7′H-spiro[isoxazole-5,6′-[2,7]methanopyrido[1,2-a][1,4]diazonin]-12′-yl propyl carbonate] showed a CC50 at 5 days of 21.9 µM.

Work on `CO[C@@H](C)COC(=O)OCOc1c2n(cc(C(=O)NCc3ccc(F)cc3F)c1=O)[C@@H]1CN(C2=O)[C@@H](C)CC[C@]12CC(C)=NO2` [Example 219, (((3′S,5S,7′R)-10′-((2,4-difluorobenzyl)carbamoyl)-3,3′-dimethyl-1′,11′-dioxo-1′,4′,5′,11′-tetrahydro-3′H,4H,7′H-spiro[isoxazole-5,6′-[2,7]methanopyrido[1,2-a][1,4]diazonin]-12′-yl)oxy)methyl ((S)-2-methoxypropyl) carbonate] yielded a CC50 at 5 days of 33.9 µM.

Work on `CCCOC(=O)Oc1c2n(cc(C(=O)NCc3ccc(F)cc3F)c1=O)[C@@H]1CN(C2=O)[C@@H](C)CC[C@]12CC(C)=NO2` [Example 125, (3′S,5S,7′R)-10′-((2,4-difluorobenzyl)carbamoyl)-3,3′-dimethyl-1′,11′-dioxo-1′,4′,5′,11′-tetrahydro-3′H,4H,7′H-spiro[isoxazole-5,6′-[2,7]methanopyrido[1,2-a][1,4]diazonin]-12′-yl propyl carbonate] yielded a CC50 at 5 days of 18.5 µM.

In the case of `CC1=NO[C@@]2(CC[C@H](C)N3C[C@H]2n2cc(C(=O)NCc4ccc(F)cc4F)c(=O)c(OCOC(=O)OCCCCCCC(C)C)c2C3=O)C1` [Example 209, (((3′S,5S,7′R)-10′-((2,4-difluorobenzyl)carbamoyl)-3,3′-dimethyl-1′,11′-dioxo-1′,4′,5′,11′-tetrahydro-3′H,4H,7′H-spiro[isoxazole-5,6′-[2,7]methanopyrido[1,2-a][1,4]diazonin]-12′-yl)oxy)methyl (7-methyloctyl) carbonate], the CC50 at 5 days is reported as at least 50 µM.

`CCC(C)C(=O)Oc1c2n(cc(C(=O)NCc3ccc(F)cc3F)c1=O)[C@@H]1CN(C2=O)[C@@H](C)CC[C@]12CC(OC)=NO2` (stereo partly drawn) [Example 50, (3′S,5S,7′R)-10′-((2,4-difluorobenzyl)carbamoyl)-3-methoxy-3′-methyl-1′,11′-dioxo-1′,4′,5′,11′-tetrahydro-3′H,4H,7′H-spiro[isoxazole-5,6′-[2,7]methanopyrido[1,2-a][1,4]diazonin]-12′-yl 2-methylbutanoate] gave a CC50 at 5 days of 21.7 µM.

Work on `CC1=NO[C@@]2(CC[C@H](C)N3C[C@H]2n2cc(C(=O)NCc4ccc(F)cc4F)c(=O)c(OC(=O)CCCC(=O)O)c2C3=O)C1` [Example 72, 5-(((3′S,5S,7′R)-10′-((2,4-difluorobenzyl)carbamoyl)-3,3′-dimethyl-1′,11′-dioxo-1′,4′,5′,11′-tetrahydro-3′H,4H,7′H-spiro[isoxazole-5,6′-[2,7]methanopyrido[1,2-a][1,4]diazonin]-12′-yl)oxy)-5-oxopentanoic acid] yielded a CC50 at 5 days of 10.8 µM.

In the case of `CCC(C)C(=O)Oc1c2n(cc(C(=O)NCc3ccc(F)cc3F)c1=O)[C@@H]1CN(C2=O)[C@@H](C)CC[C@]12CC(C)=NO2` (stereo partly drawn) [Example 51, (3′S,5S,7′R)-10′-((2,4-difluorobenzyl)carbamoyl)-3,3′-dimethyl-1′,11′-dioxo-1′,4′,5′,11′-tetrahydro-3′H,4H,7′H-spiro[isoxazole-5,6′-[2,7]methanopyrido[1,2-a][1,4]diazonin]-12′-yl 2-methylbutanoate], the CC50 at 5 days is reported as 20 µM.

With `COC[C@H](C)OC(=O)OCOc1c2n(cc(C(=O)NCc3ccc(F)cc3F)c1=O)[C@@H]1CN(C2=O)[C@@H](C)CC[C@]12CC(C)=NO2` [Example 215, (((3′S,5S,7′R)-10′-((2,4-difluorobenzyl)carbamoyl)-3,3′-dimethyl-1′,11′-dioxo-1′,4′,5′,11′-tetrahydro-3′H,4H,7′H-spiro[isoxazole-5,6′-[2,7]methanopyrido[1,2-a][1,4]diazonin]-12′-yl)oxy)methyl ((S)-1-methoxypropan-2-yl) carbonate] the CC50 at 5 days was at least 50 µM.

In the case of `CC1=NO[C@@]2(CC[C@H](C)N3C[C@H]2n2cc(C(=O)NCc4ccc(F)cc4F)c(=O)c(OC(=O)C(C)C)c2C3=O)C1` [Example 49, (3′S,5S,7′R)-10′-((2,4-difluorobenzyl)carbamoyl)-3,3′-dimethyl-1′,11′-dioxo-1′,4′,5′,11′-tetrahydro-3′H,4H,7′H-spiro[isoxazole-5,6′-[2,7]methanopyrido[1,2-a][1,4]diazonin]-12′-yl isobutyrate], the CC50 at 5 days is reported as 15.1 µM.

With `COC1=NO[C@@]2(CC[C@H](C)N3C[C@H]2n2cc(C(=O)NCc4ccc(F)cc4F)c(=O)c(OCOC(=O)OCCCCCCC(C)C)c2C3=O)C1` [Example 210, (((3′S,5S,7′R)-10′-((2,4-difluorobenzyl)carbamoyl)-3-methoxy-3′-methyl-1′,11′-dioxo-1′,4′,5′,11′-tetrahydro-3′H,4H,7′H-spiro[isoxazole-5,6′-[2,7]methanopyrido[1,2-a][1,4]diazonin]-12′-yl)oxy)methyl (7-methyloctyl) carbonate] the CC50 at 5 days was at least 50 µM.

Work on `COC(=O)Oc1c2n(cc(C(=O)NCc3ccc(F)cc3F)c1=O)[C@@H]1CN(C2=O)[C@@H](C)CC[C@]12CC(OC)=NO2` [Example 122, (03'S,5S,7′R)-10′-((2,4-difluorobenzyl)carbamoyl)-3-methoxy-3′-methyl-1′,11′-dioxo-1′,4′,5′,11′-tetrahydro-3′H,4H,7′H-spiro[isoxazole-5,6′-[2,7]methanopyrido[1,2-a][1,4]diazonin]-12′-yl methyl carbonate] yielded a CC50 at 5 days of 19.8 µM.
